Data set [1] relates to recombinant human CYP2B6, 2C8, 2C9, 2D6, and 3A4. The experiment in a line: 5-FU formation from FT enantiomers by other cDNA-expressed CYP isoforms. The note with it: other isoforms than CYP1A2, 2A6, 2C19, 2E1; FT enantiomers 0.03 mmol/L; 20 pmol CYP/mL. Format: in vitro ADME. Here is the method: (pooled preparations from 20 donors; Kansas City, KS). […] Insect microsomes expressing only NADPH-P450 oxidoreductase and cytochrome b5 were also used as control. These enzymes were stored at −80°C until use.
5-FU formed from FT was subjected to extensive metabolism by dihydropyrimidine dehydrogenase (DPD) contaminating human hepatic preparations. Therefore, a potent DPD inhibitor, CDHP, was always added to avoid the unexpected loss of 5-FU (Ikeda et al. [2000]; Yamamiya et al. [2010]). Incubation mixture for hepatic microsomal metabolism contained FT, microsomes (1 mg protein/mL), 0.1 mmol/L CDHP, and an NADPH-generating system consisting of 1.3 mmol/L β-NADP^+, 3.3 mmol/L glucose-6-phosphate, 3.3 mmol/L magnesium chloride, and 0.4 units glucose-6-phosphate dehydrogenase in 100 mmol/L Tris (pH 7.4). Metabolic reaction by S9 and cytosol (each 2 mg protein/mL) was carried out in 100 mmol/L phosphate (pH 7.4) because TPase requires phosphate ions for catalyzing the reaction. […] The spontaneous degradation of FT to 5-FU was evaluated using enzymes inactivated by heating them at 100°C for 5 min.
Concentration of 5-FU was determined using a LC/MS/MS system. […] For quantification of 5-FU, the calibration curves were linear over the range 2–1000 ng/mL. […]

On the set-up of data set [2]: method as in Damle et al. [2001]. The conditions noted are these: after oral administration; ref Damle et al. [2001]; cited from earlier work.
A further data set has as its target T1, CYP2A6 (Homo sapiens, UniProt P11509).
T1 sequence (P11509 1-494): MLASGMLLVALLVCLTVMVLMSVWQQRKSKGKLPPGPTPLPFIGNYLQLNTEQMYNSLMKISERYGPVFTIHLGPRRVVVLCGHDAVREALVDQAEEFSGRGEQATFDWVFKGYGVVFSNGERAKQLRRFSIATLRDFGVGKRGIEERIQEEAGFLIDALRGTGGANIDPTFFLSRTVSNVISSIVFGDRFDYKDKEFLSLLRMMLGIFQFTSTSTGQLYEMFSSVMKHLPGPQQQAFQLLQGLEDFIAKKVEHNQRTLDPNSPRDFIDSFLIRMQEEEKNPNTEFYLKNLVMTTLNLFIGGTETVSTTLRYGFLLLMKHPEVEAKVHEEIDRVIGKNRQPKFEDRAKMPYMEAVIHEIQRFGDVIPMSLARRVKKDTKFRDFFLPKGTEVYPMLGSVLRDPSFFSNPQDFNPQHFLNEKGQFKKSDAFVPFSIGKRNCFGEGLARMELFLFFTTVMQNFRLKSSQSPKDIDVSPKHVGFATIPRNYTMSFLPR
Description: 5-FU formation from FT enantiomers by cDNA-expressed CYP2A6 (kinetics, velocity, RAF contribution). The note with it: CYP2A6; RAF method; 30 μmol/L. The text has this:
Human hepatic 9000g supernatant (S9) and cytosolic fraction were purchased from XenoTech, LLC. (pooled preparations from 20 donors; Kansas City, KS). Human hepatic microsomes from five individuals (HG32, HH94, HH81, HH74, and HH31), a pooled preparation from 150 donors, and microsomes prepared from insect cell lines expressing CYP1A2, 2A6, 2B6, 2C8, 2C9, 2C19, 2D6, 2E1, and 3A4 were purchased from BD Gentest. Insect microsomes expressing only NADPH-P450 oxidoreductase and cytochrome b5 were also used as control. These enzymes were stored at −80°C until use.
Metabolic reaction by S9 and cytosol (each 2 mg protein/mL) was carried out in 100 mmol/L phosphate (pH 7.4) because TPase requires phosphate ions for catalyzing the reaction. In some cases, insect microsomes expressing recombinant CYP isoforms (20 pmol/mL) were added to the incubation mixtures in either 50, 100 mmol/L phosphate (pH 7.4) or 100 mmol/L Tris (pH 7.4), depending on supplier's recommendation. Microsomal protein concentrations of all cDNA-expressed CYPs were adjusted to 0.5 mg protein/mL by adding control microsomes expressing NADPH-P450 oxidoreductase and cytochrome b5. The reaction for the assay of FT metabolism was initiated by adding the substrate, following preincubation for 5 min at 37°C. After incubation at 37°C, the reaction was stopped by adding three volumes of ice-cold acetonitrile. The incubation times of microsomes, cytosol, and S9 were 15, 15, and 30 min, respectively. After centrifugation, the supernatant was collected and stored at −80°C until the determination of 5-FU. Because a small portion of FT is nonenzymatically converted to 5-FU, the content of 5-FU spontaneously formed was subtracted from total yield obtained after incubation to correct the activity. The spontaneous degradation of FT to 5-FU was evaluated using enzymes inactivated by heating them at 100°C for 5 min.
Concentration of 5-FU was determined using a LC/MS/MS system. The analytical system consisted of a HP1100 liquid chromatograph (Agilent Technologies, CA) coupled with an API4000 triple-quadrupole mass spectrometer (Applied Biosystems, CA) equipped with Turbo V source and ESI interface. Sample separation was performed using an Unison UK-Amino column (2.0 mm i.d. × 100 mm, 3 μm; Imtakt, Kyoto, Japan) at a flow rate of 0.2 mL/min at 40°C. The mobile phase consisted of 10 mmol/L ammonium acetate/acetonitrile 10:90 (v/v). […] For quantification of 5-FU, the calibration curves were linear over the range 2–1000 ng/mL.
Kinetic studies were performed using microsomes from five human livers (HG32, HH94, HH81, HH74, and HH31), cDNA-expressed CYP isoforms, or pooled human hepatic cytosol. In determining kinetic parameters, FT concentration ranged from 0.03 to 10 mmol/L. All reactions were performed in a linear range of 5-FU formation with respect to protein or CYP concentrations and incubation time.
Intrinsic clearance (CLint) was calculated as a ratio of V/S where V and S were the metabolite formation rate and the concentration of a probe substrate for CYP isoform, respectively, when the substrate concentration was well below the Km value. The RAF for each CYP isoform was calculated according to equation (3) (Venkatakrishnan et al. [2000]). [drawing 3] (3) n = 1A2, 2A6, 2C19, or 2E1.
The contribution of CYPn to the metabolism of R- and S-FT at their concentration of 30 μmol/L was subsequently calculated using equation (4). [drawing 4] (4) VCYPn = 5-FU formation rate in cDNA-expressed CYPn.

Structures are written as SMILES.

For the compound `O=c1[nH]c(=O)n(C2CCCO2)cc1F` (stereo not drawn) [FT, 5-fluoro-1-(2-tetrahydrofuryl)-2, 4 (1H, 3H)-pyrimidinedione, reference compound], in data set [1], the “activity for the enantioselective metabolism of FT (in words)” value was “negligible activity”. Moreover, the oral bioavailability entry in data set [2] was “approximately 100%”. The CYP contribution result at CYP2A6 is recorded as “over 85%”.
